Assay results published in paper PMC7587960 (Molecules, 2020).
Values after ≈ are worked out from the molar mass of the structure shown. “Also recorded” adds a separate entry of the source. Where two headings read alike, the source gives them in different places.

Assays:
[1] = target: viral polymerase complex (PA, PB1, NP, Strep-PB2) (Influenza A virus, UniProt P03427+P03430+P15659); assay type: cell-based
[2] = in vitro; details: human
Protocol: (§1) A549 and MDCK cells were seeded in 96-well plates and grown overnight. […] Next, 15 µL of sterile water or Triton X-100 10% (CytoSelect^TM LDH Cytotoxicity Assay Kit) were added to each well in DMEM or MEM, for 10 min, at room temperature. Supernatants were collected and stored at −80 °C until used. Supernatants (90 µL) were transferred to clean 96-well plates and 10 µL of LDH Reagent (CytoSelect^TM LDH Cytotoxicity Assay Kit) were added to each sample and incubated for 20 min. Quantification was performed using a spectrophotometer at 405 nm. The concentration of each sample that reduced cell viability by 50% was estimated as CC50.

[3] = in vitro; details: dog
Protocol: as §1

[4] = tested on: Na+/K+-ATPase; set-up: method as in PMID 30798081; details: cited from earlier work
[5] = tested on: influenza A virus (strain A/WSN/33 (H1N1)) RNA transcription; assay type: cell-based
[6] = tested on: influenza A virus (A/Panama/2007/1999 (H3N2))
[7] = tested on: influenza A virus (strain A/WSN/33 (H1N1))
[8] = tested on: human tumor-free lung tissue explants; assay: Viability of human tumor-free lung explants (LDH release); details: treated lung tissues, 48 h p.i.
[9] = tested on: influenza A virus (strain A/WSN/33 (H1N1)); assay: microbe, parasite or virus in culture; details: A549, 24 h, read-out: IC50 IAV (Strain WSN/33 (H1N1)), A549 cells
[10] = target: IAV polymerase (PB1, PB2, PA, NP) (Influenza A virus, UniProt P03427+P03430+P15659); assay type: cell-based
[11] = tested on: influenza A virus (strain A/WSN/33 (H1N1)) proteins PB1, NP, M1, NS1; assay type: cell-based
[12] = tested on: influenza A virus (strain A/WSN/33 (H1N1)); assay: microbe, parasite or virus in culture; details: MDCK, 24 h, read-out: IC50 IAV (Strain WSN/33 (H1N1)), MDCK cells
[13] = tested on: influenza A virus (strain A/WSN/33 (H1N1)); details: for IC50: read-out: IC50 IAV (Strain WSN/33 (H1N1)), A549 cells
[14] = tested on: influenza A virus (A/Panama/2007/1999 (H3N2)); set-up: method as in PMID 31826721; details: pre-treatment for 1 h, human lung tissues, IAV A/Panama/2007/1999 (H3N2); cited from earlier work
[15] = tested on: IAV (strain A/PR/8/34); set-up: method as in PMID 21899996; details: MDCK cells, cited from earlier work

With `C[C@]12CC[C@H](NC(=O)CNCCO)C[C@H]1CC[C@@H]1[C@@H]2CC[C@]2(C)[C@@H](C3=CC(=O)OC3)CC[C@]12O` [C10] the “viral polymerase complex assembly (PA, PB1, NP in complex precipitates)” value [1] was “interfered”, the CC50 [2] was greater than 5000 nM and the CC50 [3] was greater than 5000 nM. The “Na+/K+-ATPase inhibition” value [4] was “inhibited”, the “viral mRNA levels (NP segment 5, M1 segment 7)” value [5] was “decreased” and the “reduction of viral titers” value [6] was 4 logs. The “viral replication / viral titers” value [6] was “completely abrogated viral replication; also recorded: below the detection limit”, the “fold by which the IC50 of oleandrigenin-β-D-glucosyl (1→4)-β-D-digitalose is higher than that of the compound” value [7] was 19 fold and the “tissue integrity / tissue toxicity (LDH release)” value [8] was “did not reduce tissue integrity”. For the same compound, the IC50 [9] was roughly 60 nM, the “decrease of polymerase activity” value [10] was greater than 50% and the “early (NS1, NP, PB1) and late (M1) viral protein expression” value [11] was “decreased”. The IC50 [12] was roughly 60 nM, the “reduction of viral titers” value [13] was greater than 50% and the IC50 [13] was 57 ± 2 nM.
With `C[C@]12CC[C@H](NC(=O)CO)C[C@H]1CC[C@@H]1[C@@H]2CC[C@]2(C)[C@@H](C3=CC(=O)OC3)CC[C@]12O` [C11, 3β-(hydroxyacetyl)amino-3-deoxydigitoxigenin] the “viral polymerase complex assembly (PA, PB1, NP in complex precipitates)” value [1] was “interfered”, the CC50 [2] was greater than 5000 nM and the CC50 [3] was greater than 5000 nM. The “Na+/K+-ATPase inhibition” value [4] was “inhibited”, the “viral mRNA levels (NP segment 5, M1 segment 7)” value [5] was “decreased” and the “viral replication / viral titers” value [6] was “abolished viral replication; also recorded: below the detection limit”. The “fold by which the IC50 of oleandrigenin-β-D-glucosyl (1→4)-β-D-digitalose is higher than that of the compound” value [7] was 17 fold, the IC50 ([7]; read-out: IC50 IAV (Strain WSN/33 (H1N1)), MDCK cells) was 66 ± 6 nM and the “tissue integrity / tissue toxicity (LDH release)” value [8] was greater than 2 fold over control. For the same compound, the IC50 [9] was roughly 60 nM, the “decrease of polymerase activity” value [10] was “approximately 40%” and the “reduction of polymerase activity” value [10] was “no significant reduction”. For the same compound, the “early (NS1, NP, PB1) and late (M1) viral protein expression” value [11] was “decreased”, the IC50 [12] was roughly 60 nM and the “reduction of viral titers” value [13] was greater than 50%. It also gave an IC50 [13] of 62 nM.
With `C[C@]12CC[C@H](O)C[C@H]1CC[C@@H]1[C@@H]2CC[C@]2(C)[C@@H](C3=CC(=O)OC3)CC[C@]12O` [Digitoxigenin, digitoxigenin, reference compound] the CC50 at 24 h [2] was greater than 5000 nM, the CC50 at 24 h [3] was greater than 5000 nM and the “SI (CC50/IC50), MDCK cells” value [7] was 88.052. The IC50 [9] was 70 ± 10 nM, the IC50 [12] was 72 ± 5 nM and the “SI (CC50/IC50), A549 cells” value [13] was 92.366. The “reduction of viral titers” value [13] was greater than 50%.
In the case of `CO/C1=C\C(C)=C\[C@@H](C)[C@@H](O)[C@@H](C)C/C(C)=C/C=C/[C@H](OC)[C@@H]([C@@H](C)[C@@H](O)[C@H](C)[C@@]2(O)C[C@@H](O)[C@H](C)[C@@H](C(C)C)O2)OC1=O` [bafilomycin A], the “IAV replication in lung tissues” value [14] is listed as “abolished IAV replication”.
In the case of `COC1C(O)C(OC2CCC3(C)C(CCC4C3CCC3(C)C(C5=CC(=O)OC5)C(OC(C)=O)CC43O)C2)OC(C)C1OC1OC(CO)C(O)C(O)C1O` [oleandrigenin-β-D-glucosyl (1→4)-β-D-digitalose], the IC50 ([15]; strain A/PR/8/34, converted from µg/mL, read-out: IC50, IAV titer reduction) is given as 1140 nM and the “IC50, IAV titer reduction” value ([15]; strain A/PR/8/34) is given as 0.86 µg/mL (≈ 1.14 µM).
